The target in test [1] is T1, Phosphatidylinositol 4,5-bisphosphate 3-kinase catalytic subunit delta isoform (Homo sapiens, UniProt O00329).
T1 sequence (O00329 whole entry): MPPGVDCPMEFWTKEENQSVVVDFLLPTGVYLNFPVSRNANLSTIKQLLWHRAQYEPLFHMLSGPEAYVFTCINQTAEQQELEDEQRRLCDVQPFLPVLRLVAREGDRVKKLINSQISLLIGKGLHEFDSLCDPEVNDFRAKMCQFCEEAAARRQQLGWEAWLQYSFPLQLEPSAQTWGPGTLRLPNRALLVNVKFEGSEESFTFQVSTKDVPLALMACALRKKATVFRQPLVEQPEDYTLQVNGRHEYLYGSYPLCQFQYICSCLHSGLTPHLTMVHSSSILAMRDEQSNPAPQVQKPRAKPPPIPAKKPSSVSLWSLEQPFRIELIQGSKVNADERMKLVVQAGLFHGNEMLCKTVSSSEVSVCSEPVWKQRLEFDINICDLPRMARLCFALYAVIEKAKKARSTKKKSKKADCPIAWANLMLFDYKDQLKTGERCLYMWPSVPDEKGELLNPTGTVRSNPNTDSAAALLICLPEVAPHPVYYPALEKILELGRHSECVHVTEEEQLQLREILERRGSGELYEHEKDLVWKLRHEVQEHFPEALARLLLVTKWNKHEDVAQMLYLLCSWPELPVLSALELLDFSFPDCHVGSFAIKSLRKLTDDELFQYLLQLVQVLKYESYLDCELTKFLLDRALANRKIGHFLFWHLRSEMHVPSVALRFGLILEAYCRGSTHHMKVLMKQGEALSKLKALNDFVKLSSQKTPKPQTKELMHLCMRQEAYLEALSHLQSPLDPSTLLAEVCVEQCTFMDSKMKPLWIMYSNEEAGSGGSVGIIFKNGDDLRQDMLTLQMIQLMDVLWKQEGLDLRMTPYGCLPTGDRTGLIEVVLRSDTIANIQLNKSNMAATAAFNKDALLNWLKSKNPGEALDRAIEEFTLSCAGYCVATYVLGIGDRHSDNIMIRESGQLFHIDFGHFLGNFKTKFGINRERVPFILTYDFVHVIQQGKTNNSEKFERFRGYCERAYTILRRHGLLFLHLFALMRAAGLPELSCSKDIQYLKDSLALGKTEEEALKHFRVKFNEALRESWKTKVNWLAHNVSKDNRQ
Put plainly: Scintillation Proximity Assay: PI3Kδ:[γ-33P]ATP (10 mCi/mL) and Wheat Germ Agglutinin (WGA) YSi SPA Scintillation Beads was purchased from Perkin-Elmer (Waltham, Mass.). Lipid kinase substrate, D-myo-Phosphatidylinositol 4,5-bisphosphate (PtdIns(4,5)P2)D (+)-sn-1,2-di-O-octanoylglyceryl, 3-O-phospho linked (PIP2), CAS 204858-53-7, was purchased from Echelon Biosciences (Salt Lake City, Utah). PI3Kδ (p110δ/p85α) Recombinant Human Protein was purchased from Eurofins (St Charles, Mo.). ATP, MgCl2, DTT, EDTA, MOPS and CHAPS were purchased from Sigma-Aldrich (St. Louis, Mo.).The kinase reaction was conducted in polystyrene 384-well Greiner Bio-one white plate from Thermo Fisher Scientific in a final volume of 25 μL. Inhibitors were first diluted serially in DMSO and added to the plate wells before the addition of other reaction components. The final concentration of DMSO in the assay was 2%. The PI3Kδ assay was carried out at room temperature in 20 mM MOPS, pH 6.7, 10 mM MgCl2, 5 mM DTT and CHAPS 0.03%. Reactions were initiated by the addition of ATP, the final reaction mixture consisted of 20 μM PIP2, 2 μM ATP, 0.5 μCi [γ-33P] ATP, 3.4 nM PI3Kδ. Reactions were incubated for 120 min and terminated by the addition of 40 μL SPA beads suspended in quench buffer: 163 mM potassium phosphate pH 7.8, 20% glycerol, 25 mM EDTA. The final concentration of SPA beads is 1.0 mg/mL. […]. (In general: Scintillation proximity formats need no separation of bound from free tracer.)

Test [2] addresses Phosphatidylinositol 4,5-bisphosphate 3-kinase catalytic subunit gamma isoform (Homo sapiens, UniProt P48736). Put plainly: PI3Kγ (p110γ) Recombinant Human Protein was purchased from Life technology (Grand Island, N.Y.). […] Inhibitors were first diluted serially in DMSO and added to the plate wells before the addition of other reaction components. The final concentration of DMSO in the assay was 2%. The PI3Kγ assay was carried out at room temperature in 20 mM MOPS, pH 6.7, 10 mM MgCl2, 5 mM DTT and CHAPS 0.03%. […] The final concentration of SPA beads is 1.0 mg/mL. After the plate sealing, plates were shaken overnight at room temperature and centrifuged at 1500 rpm for 10 min, the radioactivity of the product was determined by scintillation counting on Topcount (Perkin-Elmer).

pIC50: −log10 of the molar value.

Sequence of Phosphatidylinositol 4,5-bisphosphate 3-kinase catalytic subunit gamma isoform (P48736 whole entry, canonical isoform): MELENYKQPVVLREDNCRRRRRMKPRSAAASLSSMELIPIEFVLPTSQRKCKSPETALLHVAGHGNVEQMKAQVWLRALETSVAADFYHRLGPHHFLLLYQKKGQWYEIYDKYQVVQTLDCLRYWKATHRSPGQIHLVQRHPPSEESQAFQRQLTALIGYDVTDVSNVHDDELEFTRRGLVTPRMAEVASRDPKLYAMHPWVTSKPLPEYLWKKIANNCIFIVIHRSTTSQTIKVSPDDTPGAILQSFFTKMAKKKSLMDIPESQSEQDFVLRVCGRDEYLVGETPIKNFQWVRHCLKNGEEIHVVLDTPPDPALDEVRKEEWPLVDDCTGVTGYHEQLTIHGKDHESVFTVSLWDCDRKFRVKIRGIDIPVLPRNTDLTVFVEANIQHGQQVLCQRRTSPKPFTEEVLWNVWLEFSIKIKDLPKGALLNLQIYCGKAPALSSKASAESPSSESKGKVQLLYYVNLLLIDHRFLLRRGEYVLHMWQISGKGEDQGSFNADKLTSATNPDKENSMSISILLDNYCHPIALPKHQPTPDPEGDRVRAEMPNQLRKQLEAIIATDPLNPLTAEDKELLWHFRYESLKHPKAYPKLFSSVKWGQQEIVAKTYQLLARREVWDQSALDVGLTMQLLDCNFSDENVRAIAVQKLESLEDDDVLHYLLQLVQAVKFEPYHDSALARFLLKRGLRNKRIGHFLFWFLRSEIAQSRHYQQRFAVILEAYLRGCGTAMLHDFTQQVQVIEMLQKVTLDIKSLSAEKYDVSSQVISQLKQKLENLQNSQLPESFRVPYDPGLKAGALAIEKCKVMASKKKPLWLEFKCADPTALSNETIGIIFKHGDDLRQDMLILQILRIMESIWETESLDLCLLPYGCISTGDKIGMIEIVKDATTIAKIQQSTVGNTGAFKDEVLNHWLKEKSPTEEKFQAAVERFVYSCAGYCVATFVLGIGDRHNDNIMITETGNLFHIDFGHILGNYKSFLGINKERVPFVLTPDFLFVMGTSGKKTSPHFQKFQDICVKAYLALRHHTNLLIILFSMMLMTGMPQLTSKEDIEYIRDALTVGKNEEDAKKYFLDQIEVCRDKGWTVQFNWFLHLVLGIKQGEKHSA

As a reminder, the pIC50 is −log10 of the IC50, conventionally taken in molar units. Take `Cc1ccc(S(=O)(=O)CC2CCC2)cc1-c1cnc2c(N)ncnn12`: the pIC50 in test [1] is over 5.70; in test [2], over 6.30.

The values are drawn from ChEMBL document CHEMBL5727418, “Substituted imidazo[2,1-f][1,2,4]triazines, substituted imidazo[1,2-a]pyridines and substituted imidazo[1,2-b]pyridazines as PI3K-gamma inhibitors” (2019).
